Results published in ChEMBL document CHEMBL5108052, “Histone Deacetylase and Enhancer of Zeste Homologue 2 Dual Inhibitors Presenting a Synergistic Effect for the Treatment of Hematological Malignancies” (J Med Chem, 2022).

Tests used:
MV4-11 = test: cells; settings: Homo sapiens, MV4-11, 72 h
[1] = biological target: T1, Protein deacetylase HDAC6 (Homo sapiens, UniProt Q9UBN7); test: Inhibition of HDAC6 (unknown origin) preincubated for 5 mins followed by substrate addition and measured after 30 mins by multimode microplate reader analysis
T1 sequence (Q9UBN7 whole entry): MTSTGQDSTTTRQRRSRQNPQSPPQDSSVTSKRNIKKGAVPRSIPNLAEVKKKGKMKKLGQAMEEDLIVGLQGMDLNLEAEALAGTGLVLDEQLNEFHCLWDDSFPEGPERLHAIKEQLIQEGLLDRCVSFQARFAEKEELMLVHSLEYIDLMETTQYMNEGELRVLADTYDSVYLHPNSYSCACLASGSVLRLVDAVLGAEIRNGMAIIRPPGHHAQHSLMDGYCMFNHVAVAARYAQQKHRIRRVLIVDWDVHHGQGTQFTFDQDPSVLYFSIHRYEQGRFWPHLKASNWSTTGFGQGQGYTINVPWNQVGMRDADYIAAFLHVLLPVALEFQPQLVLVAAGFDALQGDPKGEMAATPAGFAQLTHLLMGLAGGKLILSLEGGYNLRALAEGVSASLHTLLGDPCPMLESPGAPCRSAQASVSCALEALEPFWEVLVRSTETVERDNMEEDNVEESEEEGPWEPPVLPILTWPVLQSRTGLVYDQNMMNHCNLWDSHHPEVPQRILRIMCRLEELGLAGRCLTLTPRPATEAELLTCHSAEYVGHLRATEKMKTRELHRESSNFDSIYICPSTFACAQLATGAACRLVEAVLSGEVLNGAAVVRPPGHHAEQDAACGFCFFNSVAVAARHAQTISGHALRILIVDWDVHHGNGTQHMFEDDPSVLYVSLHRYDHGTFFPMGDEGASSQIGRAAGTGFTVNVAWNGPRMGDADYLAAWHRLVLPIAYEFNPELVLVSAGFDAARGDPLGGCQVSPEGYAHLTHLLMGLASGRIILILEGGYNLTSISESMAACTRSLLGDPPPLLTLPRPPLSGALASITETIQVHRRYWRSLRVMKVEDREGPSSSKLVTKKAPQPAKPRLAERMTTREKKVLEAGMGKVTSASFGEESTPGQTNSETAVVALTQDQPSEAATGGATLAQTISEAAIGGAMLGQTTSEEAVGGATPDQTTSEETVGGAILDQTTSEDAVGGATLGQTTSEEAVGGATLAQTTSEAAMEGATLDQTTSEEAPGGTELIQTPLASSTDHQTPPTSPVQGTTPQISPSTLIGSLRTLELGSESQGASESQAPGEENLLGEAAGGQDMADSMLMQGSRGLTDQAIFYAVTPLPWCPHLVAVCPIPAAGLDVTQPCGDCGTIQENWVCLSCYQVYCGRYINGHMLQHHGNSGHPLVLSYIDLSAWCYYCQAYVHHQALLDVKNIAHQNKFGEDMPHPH

SU-DHL10 = test: cells; settings: Homo sapiens, SU-DHL10, 72 h
MDA-MB-231 = test: cells; settings: Homo sapiens, MDA-MB-231, 72 h
HL-60 = test: cells; settings: Homo sapiens, HL-60, 72 h
Histone deacetylase 1 = Histone deacetylase 1 (Homo sapiens, UniProt Q13547); test: Inhibition of HDAC1 (unknown origin) preincubated for 5 mins followed by substrate addition and measured after 30 mins by multimode microplate reader analysis
HCT-116 = test: cells; settings: Homo sapiens, HCT-116, 72 h

Sequence of Histone deacetylase 1 (Q13547 whole entry): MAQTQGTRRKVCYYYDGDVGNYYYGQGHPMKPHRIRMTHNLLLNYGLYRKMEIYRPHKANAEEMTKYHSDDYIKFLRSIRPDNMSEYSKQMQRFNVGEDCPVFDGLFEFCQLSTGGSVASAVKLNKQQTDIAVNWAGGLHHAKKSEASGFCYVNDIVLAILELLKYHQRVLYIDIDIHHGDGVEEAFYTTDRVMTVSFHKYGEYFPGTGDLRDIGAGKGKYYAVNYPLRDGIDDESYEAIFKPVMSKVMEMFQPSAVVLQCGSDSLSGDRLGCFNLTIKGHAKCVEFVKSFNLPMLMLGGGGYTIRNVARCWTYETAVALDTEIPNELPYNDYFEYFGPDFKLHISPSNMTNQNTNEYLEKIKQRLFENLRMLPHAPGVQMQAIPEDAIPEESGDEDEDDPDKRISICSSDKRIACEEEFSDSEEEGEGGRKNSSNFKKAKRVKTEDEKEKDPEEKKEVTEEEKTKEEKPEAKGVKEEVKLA

IC50 (MV4-11)	IC50 [1]	IC50 (SU-DHL10)	IC50 (MDA-MB-231)	IC50 (HL-60)	IC50 (Histone deacetylase 1)	IC50 (HCT-116)	IC50 (Histone deacetylase 1; time 35.0 min)	SMILES
0.71 µM	0.71 µM	2.01 µM	7.23 µM	1.22 µM	5.54 µM	4.03 µM		Cc1cc(C)c(CNC(=O)c2cc(-c3ccc(N4CCN(CCCCCCC(=O)NO)CC4)nc3)cc3c2cnn3C(C)C)c(=O)[nH]1
> 20 µM	1.9 µM	15.3 µM	> 20 µM	> 20 µM	> 10 µM	19.8 µM		Cc1cc(C)c(CNC(=O)c2cc(-c3ccc(N4CCN(CCCCCC(=O)NO)CC4)nc3)cc3c2cnn3C(C)C)c(=O)[nH]1
1.07 µM	3.32 µM	2.53 µM	6.24 µM	0.95 µM	6.02 µM	8.85 µM		Cc1cc(C)c(CNC(=O)c2cc(-c3ccc(N4CCN(CCCCCCCCCC(=O)NO)CC4)nc3)cc3c2cnn3C(C)C)c(=O)[nH]1
0.65 µM	0.41 µM	1.57 µM	9.02 µM	1.45 µM	0.75 µM	3.01 µM		Cc1cc(C)c(CNC(=O)c2cc(-c3ccc(N4CCN(CCCCCCCC(=O)NO)CC4)nc3)cc3c2cnn3C(C)C)c(=O)[nH]1
7.15 µM	3.58 µM	17.5 µM	> 20 µM	> 20 µM	8.22 µM	> 20 µM		Cc1cc(C)c(CNC(=O)c2cc(-c3ccc(N4CCN(CCCCC(=O)NO)CC4)nc3)cc3c2cnn3C(C)C)c(=O)[nH]1

Continued, compound first:

SMILES	IC50 (MV4-11)	IC50 [1]	IC50 (SU-DHL10)	IC50 (MDA-MB-231)	IC50 (HL-60)	IC50 (Histone deacetylase 1)	IC50 (HCT-116)	IC50 (Histone deacetylase 1; time 35.0 min)
Cc1cc(C)c(CNC(=O)c2cc(-c3ccc(N4CCN(CCCC(=O)NO)CC4)nc3)cc3c2cnn3C(C)C)c(=O)[nH]1	> 20 µM	6.89 µM	> 20 µM	> 20 µM	> 20 µM	> 10 µM	> 20 µM	
Cc1cc(C)c(CNC(=O)c2cc(-c3ccc(NC(=O)CCCCCC(=O)NO)cc3)cc3c2cnn3C(C)C)c(=O)[nH]1	> 20 µM	0.25 µM	> 20 µM	> 20 µM	> 20 µM	0.64 µM	> 20 µM	
Cc1cc(C)c(CNC(=O)c2cc(-c3ccc(N4CCN(C(=O)CCCC(=O)NO)CC4)nc3)cc3c2cnn3C(C)C)c(=O)[nH]1	11.2 µM	1.75 µM	> 20 µM	> 20 µM	> 20 µM	3.33 µM	> 20 µM	
Cc1cc(C)c(CNC(=O)c2cc(-c3ccc(N4CCN(C(=O)OC(C)(C)C)CC4)nc3)cc(NC(=O)CCCC(=O)NO)c2C)c(=O)[nH]1	> 20 µM	3.02 µM	> 20 µM	> 20 µM	> 20 µM	> 10 µM	> 20 µM	
Cc1cc(C)c(CNC(=O)c2cc(-c3ccc(N4CCN(C(=O)OC(C)(C)C)CC4)nc3)cc(NC(=O)CCCCC(=O)NO)c2C)c(=O)[nH]1	18.6 µM	1.85 µM	14.4 µM	> 20 µM	14.5 µM		> 20 µM	> 10 µM
Cc1cc(C)c(CNC(=O)c2cc(-c3ccc(N4CCN(C(=O)CCCCC(=O)NO)CC4)nc3)cc3c2cnn3C(C)C)c(=O)[nH]1	18.8 µM	1.73 µM	> 20 µM	> 20 µM	> 20 µM	7.56 µM	> 20 µM	
Cc1cc(C)c(CNC(=O)c2cc(-c3ccc(N4CCN(Cc5ccc(NC(=O)CCCCCCC(=O)NO)cc5)CC4)nc3)cc3c2cnn3C(C)C)c(=O)[nH]1	0.63 µM	0.7 µM	0.48 µM	6.02 µM	2.85 µM	1.54 µM	4.02 µM	
Cc1cc(C)c(CNC(=O)c2cc(-c3ccc(N4CCN(C(=O)CCCCCC(=O)NO)CC4)nc3)cc3c2cnn3C(C)C)c(=O)[nH]1	1.49 µM	0.15 µM	4.02 µM	> 20 µM	11.2 µM	2.87 µM	> 20 µM	
